In US9919998B2, “Antibacterial agents: Nα-aroyl-N-aryl-phenylalaninamides” (priority 2014, dated 2018):
Values after ≈ are worked out from the molar mass of the structure shown.

Assays:
Format in all cases: cell-based
[1] = tested on: Vero E6 ATCC CRL1586 cells; experiment: Mammalian-cell cytotoxicity, minimal cytotoxic concentration (CellTiter96)
Method: Minimal cytotoxic concentrations (MCCs) against mammalian cells in culture were determined using Vero E6 ATCC CRL1586 cells and the CellTiter96 assay kit (Promega, Inc.). […]

[2] = tested on: Mycobacterium smegmatis ATCC 19420; experiment: Broth microdilution MIC, M. smegmatis; conditions: Mycolicibacterium smegmatis, ATCC19420, M. smegmatis ATCC 19420; read-out: MIC Mycobacterium smegmatis ATCC 19420
Excerpt: MICs in Mycobacterium smegmatis ATCC 19420 and Mycobacterium smegmatis ATCC 19420 derivatives were quantified using broth microdilution assays as described [Clinical and Laboratory Standards Institute (CLSI/NCCLS) (2009) Methods for Dilution Antimicrobial Susceptibility Tests for Bacteria That Grow Aerobically; Approved Standard, Eighth Edition. CLIS Document M07-A8 (CLIS, Wayne Pa.)].

[3] = tested on: Mycobacterium avium ATCC 25291; experiment: Microplate Alamar Blue assay (MABA) MIC, M. avium; conditions: ATCC25291, M. avium ATCC 25291
Excerpt: (§1) Minimal inhibitory concentrations (MICs) in Mycobacterium tuberculosis H37Rv and Mycobacterium avium ATCC 25291 were quantified using microplate Alamar Blue assays as described (MABA; [Collins, L. & Franzblau, S. (1997) Microplate Alamar Blue assay versus BACTEC 460 system for high-throughput screening of compounds against Mycobacterium tuberculosis and Mycobacterium avium. Antimicrob. Agents Chemother. 41, 1004-1009]).

[4] = tested on: Mycobacterium tuberculosis H37Rv; experiment: Microplate Alamar Blue assay (MABA) MIC, M. tuberculosis; conditions: read-out: MIC Mycobacterium tuberculosis H37Rv
Excerpt: as §1

Compound	MCC mammalian cells Vero E6 ATCC CRL1586 [1]	MIC [2]	MIC [3]	MIC [4]
O=C(NC(Cc1ccccc1)C(=O)Nc1ccccc1N1CCSCC1)c1ccccc1 (stereo not shown) [IX-149, N-(1-oxo-3-phenyl-1-((2-thiomorpholinophenyl)amino)propan-2-yl)-benzamide]	>100 µg/mL	0.095 mg/L (≈ 0.213 µM)	> 50 mg/L	3.12 mg/L (≈ 7.01 µM)
CC(=O)N1CCCN(c2ccc(F)cc2NC(=O)C(Cc2ccccc2)NC(=O)c2ccccc2F)CC1 (stereo not shown) [IX-319, N-(1-((2-(4-acetyl-1,4-diazepan-1-yl)-5-fluorophenyl)amino)-1-oxo-3-phenylpropan-2-yl)-2-fluorobenzamide]	>100 µg/mL	0.39 mg/L (≈ 0.749 µM)	6.25 mg/L (≈ 12 µM)	3.12 mg/L (≈ 6 µM)
O=C(NC(Cc1ccccc1)C(=O)Nc1cccc2c1OCCO2)c1cccs1 (stereo not shown) [IX-31, N-(1-((2,3-dihydrobenzo[b][1,4]dioxin-5-yl)amino)-1-oxo-3-phenylpropan-2-yl)thiophene-2-carboxamide]	30 µg/mL	0.195 mg/L (≈ 0.477 µM)	3.12 mg/L (≈ 7.65 µM)	3.12 mg/L (≈ 7.65 µM)
O=C(NC(Cc1ccccc1)C(=O)Nc1cccc2c1OCO2)c1ccccc1 (stereo not shown) [IX-72, N-(1-(benzo[d][1,3]dioxol-4-ylamino)-1-oxo-3-phenylpropan-2-yl)benzamide]	33 µg/mL	0.095 mg/L (≈ 0.245 µM)	3.12 mg/L (≈ 8.05 µM)	6.25 mg/L (≈ 16.1 µM)
Cn1ncc2c(NC(=O)C(Cc3ccccc3)NC(=O)c3ccccc3)cccc21 (stereo not shown) [IX-225, N-(1-((1-methyl-1H-indazol-4-yl)amino)-1-oxo-3-phenylpropan-2-yl)benzamide]	45 µg/mL	0.195 mg/L (≈ 0.489 µM)	1.56 mg/L (≈ 3.92 µM)	1.56 mg/L (≈ 3.92 µM)
O=C(NC(Cc1ccc(O)cc1)C(=O)Nc1cc(F)ccc1N1CCNCC1)c1cccs1 (stereo not shown) [IX-222, N-(1-((5-fluoro-2-(piperazin-1-yl)phenyl)amino)-3-(4-hydroxyphen-yl)-1-oxopropan-2-yl)thiophene-2-carboxamide]	38 µg/mL	0.78 mg/L (≈ 1.66 µM)	1.56 mg/L (≈ 3.33 µM)	1.56 mg/L (≈ 3.33 µM)
O=C(NC(Cc1ccccc1)C(=O)Nc1cccc2[nH]ccc12)c1cccs1 (stereo not shown) [IX-104, N-(1-((1H-indol-4-yl)amino)-1-oxo-3-phenylpropan-2-yl)thiophene-2-carboxamide]	33 µg/mL	0.39 mg/L (≈ 1 µM)	50 mg/L (≈ 128 µM)	25 mg/L (≈ 64.2 µM)
O=C(NC(Cc1ccccc1)C(=O)Nc1cccc2cc[nH]c12)c1ccccc1F (stereo not shown) [IX-96, N-(1-((1H-indol-7-yl)amino)-1-oxo-3-phenylpropan-2-yl)-2-fluorobenzamide]	44 µg/mL	0.78 mg/L (≈ 1.94 µM)	25 mg/L (≈ 62.3 µM)	12.5 mg/L (≈ 31.1 µM)
O=C(NC(Cc1ccccc1)C(=O)Nc1cc(F)ccc1N1CCOCC1)c1cccs1 (stereo not shown) [IX-160, N-(1-((5-fluoro-2-morpholinophenyl)amino)-1-oxo-3-phenylpropan-2-yl)thiophene-2-carboxamide]	30 µg/mL	0.097 mg/L (≈ 0.214 µM)	0.78 mg/L (≈ 1.72 µM)	0.78 mg/L (≈ 1.72 µM)
O=C(NC(Cc1ccccc1)C(=O)Nc1cc(F)cc2ncccc12)c1ccccc1 (stereo not shown) [IX-75, N-(1-((7-fluoroquinolin-5-yl)amino)-1-oxo-3-phenylpropan-2-yl)benzamide]	>100 µg/mL	0.39 mg/L (≈ 0.943 µM)	0.78 mg/L (≈ 1.89 µM)	0.78 mg/L (≈ 1.89 µM)
Cc1c(NC(=O)C(Cc2ccccc2)NC(=O)c2ccccc2)cccc1C(C)C (stereo not shown) [I-138]	>100 µg/mL	0.78 mg/L (≈ 1.95 µM)	> 50 mg/L	6.25 mg/L (≈ 15.6 µM)
Cc1ccc(F)cc1NC(=O)C(Cc1ccccc1)NC(=O)c1cccs1 (stereo not shown) [IX-79, N-(1-((5-fluoro-2-methylphenyl)amino)-1-oxo-3-phenylpropan-2-yl)thiophene-2-carboxamide]	23 µg/mL	0.19 mg/L (≈ 0.497 µM)	1.56 mg/L (≈ 4.08 µM)	1.56 mg/L (≈ 4.08 µM)
Cc1ccc(Cl)cc1NC(=O)C(Cc1ccccc1)NC(=O)c1ccccc1Cl (stereo not shown) [IX-61, 2-chloro-N-(1-((5-chloro-2-methylphenyl)amino)-1-oxo-3-phenylpropan-2-yl)benzamide]	9.2 µg/mL	0.39 mg/L (≈ 0.913 µM)	> 50 mg/L	> 50 mg/L
O=C(NC(Cc1ccccc1)C(=O)Nc1cccc2c1CCCC2)c1cccs1 (stereo not shown) [IX-86, N-(1-oxo-3-phenyl-1-((5,6,7,8-tetrahydronaphthalen-1-yl)amino)propan-2-yl)thiophene-2-carboxamide]	50 µg/mL	0.78 mg/L (≈ 1.93 µM)	> 50 mg/L	> 50 mg/L
COc1ccc(F)cc1NC(=O)C(Cc1ccc(O)cc1)NC(=O)c1cccs1 (stereo not shown) [IX-206, N-(1-((5-fluoro-2-methoxyphenyl)amino)-3-(4-hydroxyphenyl)-1-oxopropan-2-yl)thiophene-2-carboxamide]	70 µg/mL	0.195 mg/L (≈ 0.47 µM)	0.39 mg/L (≈ 0.941 µM)	0.78 mg/L (≈ 1.88 µM)
Cc1ccc(F)cc1NC(=O)C(Cc1ccccc1)NC(=O)c1ccccc1F (stereo not shown) [IX-81, 2-fluoro-N-(1-((5-fluoro-2-methylphenyl)amino)-1-oxo-3-phenylpropan-2-yl)benzamide]	38 µg/mL	0.195 mg/L (≈ 0.494 µM)	3.12 mg/L (≈ 7.92 µM)	1.56 mg/L (≈ 3.96 µM)
O=C(NC(Cc1ccc(O)cc1)C(=O)Nc1cccc2c1CCCC2)c1ccccc1 (stereo not shown) [IX-6, N-(3-(4-hydroxyphenyl)-1-oxo-1-((5,6,7,8-tetrahydronaphthalen-1-yl)amino)propan-2-yl)benzamide]	21 µg/mL	1.56 mg/L (≈ 3.76 µM)	6.25 mg/L (≈ 15.1 µM)	6.25 mg/L (≈ 15.1 µM)
O=C(NC(Cc1ccccc1)C(=O)Nc1cccc2ncccc12)c1cccs1 (stereo not shown) [IX-85, N-(1-oxo-3-phenyl-1-(quinolin-5-ylamino)propan-2-yl)thiophene-2-carboxamide]	40 µg/mL	0.39 mg/L (≈ 0.971 µM)	25 mg/L (≈ 62.3 µM)	12.5 mg/L (≈ 31.1 µM)
COc1ccc(Cl)cc1NC(=O)C(Cc1ccccc1)NC(=O)c1ccccc1C (stereo not shown) [IX-279, N-(1-((5-chloro-2-methoxyphenyl)amino)-1-oxo-3-phenylpropan-2-yl)-2-methylbenzamide]	87 µg/mL	1.56 mg/L (≈ 3.69 µM)	0.78 mg/L (≈ 1.84 µM)	0.78 mg/L (≈ 1.84 µM)
O=C(NC(Cc1ccccc1)C(=O)Nc1ccccc1C(F)F)c1ccccc1 (stereo not shown) [I-148]	100 µg/mL	3.12 mg/L (≈ 7.92 µM)	> 50 mg/L	6.25 mg/L (≈ 15.8 µM)
Cc1ccc(Cl)cc1NC(=O)C(Cc1ccc(O)cc1)NC(=O)c1cccs1 (stereo not shown) [IX-94, N-(1-((5-chloro-2-methylphenyl)amino)-3-(4-hydroxyphenyl)-1-oxopropan-2-yl)thiophene-2-carboxamide]	58 µg/mL	0.78 mg/L (≈ 1.88 µM)	3.12 mg/L (≈ 7.53 µM)	3.12 mg/L (≈ 7.53 µM)
Cc1ccc(Cl)cc1NC(=O)C(Cc1ccc(O)cc1)NC(=O)c1ccccc1 (stereo not shown) [IX-51, N-(1-((5-chloro-2-methylphenyl)amino)-3-(4-hydroxyphenyl)-1-oxopropan-2-yl)benzamide]	60 µg/mL	0.78 mg/L (≈ 1.91 µM)	6.25 mg/L (≈ 15.3 µM)	3.12 mg/L (≈ 7.64 µM)
